The values below come from ChEMBL document CHEMBL5143537, “Quinazoline-based hydroxamic acid derivatives as dual histone methylation and deacetylation inhibitors for potential anticancer agents” (Bioorg Med Chem, 2022).

In one data set the target is Histone deacetylase 1 (Homo sapiens, UniProt Q13547). The data set can be described thus: Inhibition of recombinant human HDAC1 expressed in baculovirus infection system using Ac-peptide-AMC as substrate preincubated for 15 mins followed by substrate addition and measured after 60 mins by fluorescence assay.
Another data set relates to K562. The data set can be described thus: Antiproliferative activity against human K562 cells measured after 72 hrs by MTT assay. Type of data set: functional, cell-based. The conditions noted are these: K562, 72 h.
The subject of the next data set is HCT-116. Put plainly: Antiproliferative activity against human HCT-116 cells measured after 72 hrs by MTT assay. Format: functional, cell-based. To be noted: HCT-116, 72 h. A general note: Formazan colour is commonly taken as a measure of viable cells.
The subject of data set [1] is HepG2. The data set can be described thus: Antiproliferative activity against human HepG2 cells measured after 72 hrs by MTT assay. Format: functional, cell-based. The conditions noted are these: HepG2, 72 h.
Data set [2] has as its target T1, Histone-lysine N-methyltransferase EHMT1 (Homo sapiens) (UniProt Q9H9B1).
T1 sequence (whole entry): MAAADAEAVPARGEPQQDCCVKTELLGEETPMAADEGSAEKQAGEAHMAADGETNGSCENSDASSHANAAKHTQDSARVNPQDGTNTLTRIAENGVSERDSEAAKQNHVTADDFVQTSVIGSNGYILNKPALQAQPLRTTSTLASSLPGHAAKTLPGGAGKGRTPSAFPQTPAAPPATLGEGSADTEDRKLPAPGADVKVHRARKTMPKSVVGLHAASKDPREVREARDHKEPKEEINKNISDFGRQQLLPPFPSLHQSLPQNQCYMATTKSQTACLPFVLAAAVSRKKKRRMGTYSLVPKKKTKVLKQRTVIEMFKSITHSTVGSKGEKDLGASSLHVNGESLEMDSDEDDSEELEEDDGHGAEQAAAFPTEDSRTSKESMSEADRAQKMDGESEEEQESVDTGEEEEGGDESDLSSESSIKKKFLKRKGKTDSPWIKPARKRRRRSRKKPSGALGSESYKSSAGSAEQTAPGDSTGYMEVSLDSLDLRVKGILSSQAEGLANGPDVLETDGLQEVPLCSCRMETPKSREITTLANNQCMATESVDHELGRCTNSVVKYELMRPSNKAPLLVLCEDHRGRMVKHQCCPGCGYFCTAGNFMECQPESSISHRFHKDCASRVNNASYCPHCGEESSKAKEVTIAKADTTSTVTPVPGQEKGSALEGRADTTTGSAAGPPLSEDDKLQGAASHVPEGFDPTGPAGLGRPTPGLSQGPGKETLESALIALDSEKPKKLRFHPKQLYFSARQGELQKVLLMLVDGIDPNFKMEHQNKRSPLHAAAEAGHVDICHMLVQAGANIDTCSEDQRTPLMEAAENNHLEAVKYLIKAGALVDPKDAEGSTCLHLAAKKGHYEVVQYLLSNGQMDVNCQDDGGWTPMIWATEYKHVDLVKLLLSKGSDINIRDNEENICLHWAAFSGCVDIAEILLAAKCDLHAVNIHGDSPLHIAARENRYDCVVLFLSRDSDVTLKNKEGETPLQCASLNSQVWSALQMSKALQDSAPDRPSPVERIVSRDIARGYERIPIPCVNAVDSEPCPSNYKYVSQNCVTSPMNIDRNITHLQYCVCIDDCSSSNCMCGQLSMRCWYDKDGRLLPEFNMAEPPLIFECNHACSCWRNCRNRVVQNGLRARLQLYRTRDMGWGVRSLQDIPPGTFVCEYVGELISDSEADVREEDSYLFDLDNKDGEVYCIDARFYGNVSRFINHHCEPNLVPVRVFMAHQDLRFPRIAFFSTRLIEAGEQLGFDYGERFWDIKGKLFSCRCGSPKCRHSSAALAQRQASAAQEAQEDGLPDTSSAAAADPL
Put plainly: Inhibition of GLP in human HepG2 cells assessed as reduction in H3K9Me2 expression at 1.25 to 20 uM measured after 24 hrs by Western blot analysis. To be noted: dose 1.25-20 µM. Format: cell-based. Background: In western blotting, separated proteins are transferred to a membrane and probed.

A short description of data set [3]: Effect on H3 expression in human HepG2 cells at 1.25 to 25 uM measured after 24 hrs by Western blot analysis. Format: toxicity, cell-based. The conditions noted are these: hepg2, 24 h, dose 1.25-25 µM.
In data set [4] the test system is HepG2. The data set can be described thus: Induction of apoptosis in human HepG2 cells assessed as viable cells at 1.25 uM measured after 48 hrs by Annexin V-FITC/propidium iodide staining based flow cytometry (reference value: 88.58%). Format: functional. The conditions noted are these: read-out: Activity. Background: Flow cytometry measures light scatter and fluorescence of single cells or particles in a stream.

Data set [5] concerns HepG2. Put plainly: Induction of apoptosis in human HepG2 cells assessed as necrotic cells at 2.5 uM measured after 48 hrs by Annexin V-FITC/propidium iodide staining based flow cytometry (reference value: 0%). Type of data set: functional.
The subject of data set [6] is HepG2. Put plainly: Induction of apoptosis in human HepG2 cells assessed as viable cells at 5 uM measured after 48 hrs by Annexin V-FITC/propidium iodide staining based flow cytometry (reference value: 88.58%). Format: functional. The conditions noted are these: read-out: Activity.
Data set [7] concerns HepG2. The data set can be described thus: Induction of apoptosis in human HepG2 cells assessed as necrotic cells at 5 uM measured after 48 hrs by Annexin V-FITC/propidium iodide staining based flow cytometry (reference value: 0%). Type of data set: functional.
The subject of data set [8] is HepG2. The data set can be described thus: Induction of apoptosis in human HepG2 cells assessed as viable cells at 10 uM measured after 48 hrs by Annexin V-FITC/propidium iodide staining based flow cytometry (reference value: 88.58%). Format: functional. To be noted: read-out: Activity.
The test system of data set [9] is HepG2. The data set can be described thus: Induction of apoptosis in human HepG2 cells assessed as early apoptotic cells at 10 uM measured after 48 hrs by Annexin V-FITC/propidium iodide staining based flow cytometry (reference value: 6.87%). Type of data set: functional.
The test system of data set [10] is HepG2. Put plainly: Induction of apoptosis in human HepG2 cells assessed as necrotic cells at 10 uM measured after 48 hrs by Annexin V-FITC/propidium iodide staining based flow cytometry (reference value: 0%). Type of data set: functional.
Data set [11] relates to HepG2. The data set can be described thus: Induction of apoptosis in human HepG2 cells assessed as late apoptotic cells at 20 uM measured after 48 hrs by Annexin V-FITC/propidium iodide staining based flow cytometry (reference value: 4.55%). Format: functional.
For data set [12], the system named is HepG2. The data set can be described thus: Induction of apoptosis in human HepG2 cells measured after 48 hrs by Annexin V-FITC/propidium iodide staining based flow cytometry. Type of data set: functional, cell-based. The conditions noted are these: dose 1.25-25 µM, DDE = dose-dependent effect.
Data set [13] has as its system HepG2. Put plainly: Cell cycle arrest in human HepG2 cells assessed as accumulation at G0/G1 phase at 2.5 uM measured after 48 hrs by propidium iodide staining based flow cytometry (reference value: 55.24%). Type of data set: functional.
The subject of data set [14] is HepG2. The data set can be described thus: Cell cycle arrest in human HepG2 cells assessed as accumulation at S phase at 2.5 uM measured after 48 hrs by propidium iodide staining based flow cytometry (reference value: 32.39%). Type of data set: functional.
In data set [15] the test system is HepG2. Put plainly: Cell cycle arrest in human HepG2 cells assessed as accumulation at G0/G1 phase at 5 uM measured after 48 hrs by propidium iodide staining based flow cytometry (reference value: 55.24%). Format: functional.
The subject of data set [16] is HepG2. Put plainly: Cell cycle arrest in human HepG2 cells assessed as accumulation at G0/G1 phase at 10 uM measured after 48 hrs by propidium iodide staining based flow cytometry (reference value: 55.24%). Format: functional.
For data set [17], the system named is HepG2. Put plainly: Cell cycle arrest in human HepG2 cells assessed as increase in p27 expression measured after 24 hrs by Western blot analysis. The conditions noted are these: dose 1.25-20 µM, DDE = dose-dependent effect. Format: functional, cell-based.
Data set [18] concerns HepG2. Put plainly: Antimigratory activity against human HepG2 cells measured after 24 hrs by wound healing assay. Format: functional, cell-based. To be noted: dose 1.5-5 µM, DDE = dose-dependent effect.
Data set [19] relates to HepG2. Put plainly: Inhibition of colony formation in human HepG2 cells measured after 24 hrs. The conditions noted are these: dose 1.25-20 µM, DDE = dose-dependent effect. Type of data set: functional, cell-based.

Active and inactive are the calls of the source. No cut-off for these calls is given here.

Histone deacetylase 1, sequence (Q13547 whole entry): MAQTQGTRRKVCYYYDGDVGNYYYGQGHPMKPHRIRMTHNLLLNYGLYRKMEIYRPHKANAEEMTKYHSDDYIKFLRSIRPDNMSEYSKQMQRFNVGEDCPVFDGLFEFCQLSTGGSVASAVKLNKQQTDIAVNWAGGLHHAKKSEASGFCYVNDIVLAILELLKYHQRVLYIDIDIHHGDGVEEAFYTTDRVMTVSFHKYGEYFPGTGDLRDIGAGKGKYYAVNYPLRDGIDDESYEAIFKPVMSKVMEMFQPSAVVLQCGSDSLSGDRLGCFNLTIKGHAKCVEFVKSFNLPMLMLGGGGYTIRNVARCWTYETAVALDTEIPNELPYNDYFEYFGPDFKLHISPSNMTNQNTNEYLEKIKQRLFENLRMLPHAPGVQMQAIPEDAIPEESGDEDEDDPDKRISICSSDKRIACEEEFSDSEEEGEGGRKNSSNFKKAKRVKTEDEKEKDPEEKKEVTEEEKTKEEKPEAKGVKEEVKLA

By IC50 is commonly meant the midpoint of a concentration-inhibition curve. With `COc1cc2nc(N3CCN(CCCCCC(=O)NO)CC3)nc(NC3CCN(Cc4ccccc4)CC3)c2cc1OC`, the IC50 was 89 nM on Histone deacetylase 1, 2600 nM in the data set on K562, 11000 nM in the data set on HCT-116 and 2740 nM with HepG2 [1]. Also, the inhibition entry in data set [2] was “Active”. The Activity result in data set [3] is “Non-Toxic”; in the data set on HepG2 [5], 0%; with HepG2 [7] it was 0%; with HepG2 [9], 16.02%; in the data set on HepG2 [10], 0%; in the data set on HepG2 [11] it was 17.12%. Also, the Activity result with HepG2 [12] is “Dde”; with HepG2 [13] it was 57.88%; in the data set on HepG2 [14] it was 28.84%; in the data set on HepG2 [15], 58.07%; in the data set on HepG2 [16], 59.81%; in the data set with HepG2 [17] it was “Dde”. Moreover, the Activity entry in the data set on HepG2 [18] is “Dde”. Further, the viability at 1.25 µM in the data set with HepG2 [4] came to 88.5%. Also, the viability at 5 µM in the data set with HepG2 [6] stood at 87.3%. Besides, the viability at 10 µM in the data set with HepG2 [8] worked out at 77.8%. In the data set on HepG2 [19], the inhibition entry was “Dde”.
